Results as given in patent US8455460B2, “Cosmetic composition containing one or more compounds of the β-(1,3)-glucuronan or β-(1,3)-glucoglucuronan type” (Greentech, priority 2007, dated 2013).

Columns and labels:
human fibroblasts = assay: transcriptomic study on human fibroblasts cultivated in vitro in the absence or presence of the compounds; type: cell-based; settings: cellular renewal
Text: The biological activities of β-(1,3)-glucuronan compounds or of a mixture of β-(1,3)-glucoglucuronan compounds were screened by an original method of molecular biology (transcriptomic technique) and then detected by methodologies used conventionally in cosmetology.
This adipokine produced locally in the adipose tissue inhibits the activity of the enzyme lipoprotein lipase (LPL) thus preventing the transfer of fatty acids from the lipoproteins to the adipocytes, thus greatly reducing lipogenesis. At the same time, this adipokine activates the enzyme ATGL (adipose triglyceride lipase), present in the adipocytes, thus greatly increasing lipolysis and the release of fatty acids from the adipocytes.
In fact, the transitory induction (under the control of TFPI2 and of PDGFD) of the metalloproteinases (MMP) and the transitory inhibition (under the control of TFPI2) of HAPLN1, permit transitory, localized destabilization of the stressed site (requiring cicatrization) of the extracellular matrix, mainly by catabolic action on the collagen fibers. […]

adipocytes = assay: in-vitro study on adipocytes: density of fatty acids stored as triglycerides in the lipid vacuoles; type: cell-based; settings: concentration of 0.5%
[1] = clinical study on human volunteers, daily topical application of cream (cellulite, orange-peel skin); type: in vivo; settings: cream containing 3%, daily topical application for 30 days, placebo 27%
Text: The orange-peel skin effect is reduced in 53% of the volunteers (against 27% in the group of volunteers treated with a placebo).

[2] = chelation and sequestration of cationic ions, investigated by atomic absorption; type: physicochemical; settings: Na+, Cu+, Cu2+, Ca2+, Mg2+, Zn2+, with stirring, compounds recovered and washed
Text: The β-(1,3)-glucuronan compounds or the mixture of β-(1,3)-glucoglucuronan compounds are polyanionic molecules capable of chelating and of sequestering mono- and divalent cationic ions.

Substance: β-(1,3)-D-polyglucuronic acid [β-(1,3)-glucuronan compound]
- expression of TFPI2 (human fibroblasts): overexpressed
- expression of the genes EGR1, PTGS2, PDGFD, NPTX1 (human fibroblasts): overexpression
- decrease in the density of fatty acids stored in the form of triglycerides in the lipid vacuoles of the adipocytes (adipocytes): ~25%
- volunteers in whom the orange-peel skin effect is reduced [1]: 53%
- chelating and sequestering of mono- and divalent cationic ions [2]: chelate and sequester
